Data as given in article PMC8815882, “Screening the pandemic response box identified benzimidazole carbamates, Olorofim and ravuconazole as promising drug candidates for the treatment of eumycetoma” (PLoS Neglected Tropical Diseases, 2022).
Like-named read-outs stand apart in the source and are kept apart here.

Legend:
Type in all cases: cell-based, Madurella mycetomatis
[1] = tested on: M. mycetomatis genome strain MM55; assay: CLSI M38-A2 based in vitro susceptibility screening (XTT or resazurin), growth at fixed concentration; details: for activity at 25 µM / activity at 100 µM / Percent fungal survival at 100 µM: Madurella mycetomatis; for Percent fungal survival at 100 µM: replicate 2, read-out: Percentage survival at 100um, 100 uM A (second replicate column)
[2] = tested on: M. mycetomatis MM55; assay: IC50 determination, 2-fold dilution series 16 to 0.03125 μM; details: for IC50 / IC90: Madurella mycetomatis
[3] = tested on: ten different M. mycetomatis isolates; assay: MIC / MIC50 determination (XTT) in ten M. mycetomatis isolates; details: no asterisk
[4] = 25 uM, mean of three replicates, read-out: Percentage survival at 25um, 25 uM mean
[5] = 25 uM, replicate A, read-out: Percentage survival at 25um, 25 um A
[6] = 25 uM, replicate B, read-out: Percentage survival at 25um, 25 uM B
[7] = 25 uM, replicate C, read-out: Percentage survival at 25um, 25 uM C
[8] = 100 uM, mean of three replicates, read-out: Percentage survival at 100um, 100 uM mean
[9] = 100 uM, replicate 1, read-out: Percentage survival at 100um, 100 uM A (first replicate column)
[10] = 100 uM, replicate 3, read-out: Percentage survival at 100um, 100 uM A (third replicate column)
[11] = MM55, mean of three replicates, read-out: IC50 mean
[12] = MM55, mean of three replicates, read-out: IC90 mean
[13] = MM55, replicate 1, read-out: IC50 1 um
[14] = MM55, replicate 1, read-out: IC90 1 um
[15] = MM55, replicate 2, read-out: IC50 2 um
[16] = MM55, replicate 2, read-out: IC90 2 um
[17] = MM55, replicate 3, read-out: IC50 3 um
[18] = MM55, replicate 3, read-out: IC90 3 um
[19] = 25 uM, mean, read-out: Percentage survival at 25um, 25 uM mean
[20] = 100 uM, mean, read-out: Percentage survival at 100um, 100 uM mean
[21] = 100 uM, replicate (first column), read-out: Percentage survival at 100um, 100 uM A
[22] = 100 uM, replicate (second column), read-out: Percentage survival at 100um, 100 uM A
[23] = 100 uM, replicate (third column), read-out: Percentage survival at 100um, 100 uM A
[24] = MM55, replicate 1, read-out: IC50 1
[25] = MM55, replicate 1, read-out: IC90 1
[26] = MM55, replicate 2, read-out: IC50 2
[27] = MM55, replicate 2, read-out: IC90 2
[28] = MM55, replicate 3, read-out: IC50 3
[29] = MM55, replicate 3, read-out: IC90 3

`Cc1nc2ccc(Oc3ccccc3)cc2c2c1CCN2CCc1ccccc1` [MMV1634399] showed an activity at 25 µM [1, 4] of 3.88%, an activity at 25 µM [1, 5] of -3.19% and an activity at 25 µM [1, 6] of -1.6%. The activity at 25 µM [1, 7] was 16.4%, the activity at 100 µM [1, 8] was 0.985% and the activity at 100 µM [1, 9] was 1.91%. The Percent fungal survival at 100 µM ([1]; 100 uM) was -0.867%, the activity at 100 µM [1, 10] was 1.92% and the “Drug static or cidal” value [2] was “Cidal”. For the same molecule, the IC50 [2, 11] was 11.8 µM, the IC90 [2, 12] was 22 µM and the IC50 [2, 13] was 14.2 µM. The IC90 [2, 14] was 22.3 µM, the IC50 [2, 15] was 9.8 µM and the IC90 [2, 16] was 22.7 µM. The IC50 [2, 17] was 11.2 µM and the IC90 [2, 18] was 21 µM.
`N=C(N)NCCCCC(=O)Nc1cc(C(F)(F)F)cc(NC(=O)c2cc(C(=O)Nc3cc(C(F)(F)F)cc(NC(=O)CCCCNC(=N)N)c3O[C@@H]3CCNC3)ncn2)c1O[C@@H]1CCNC1` [MMV1634402] was tested, and the activity at 25 µM [1, 4] was 14%, the activity at 25 µM [1, 5] was 3.69% and the activity at 25 µM [1, 6] was 8.57%. The activity at 25 µM [1, 7] was 29.8%, the activity at 100 µM [1, 8] was 18.1% and the activity at 100 µM [1, 9] was 14.1%. For the same molecule, the Percent fungal survival at 100 µM ([1]; 100 uM) was 19.7%, the activity at 100 µM [1, 10] was 20.5% and the “Drug static or cidal” value [2] was “Cidal”. It also gave an IC50 [2, 11] of 12.2 µM, an IC90 [2, 12] of 22.2 µM and an IC50 [2, 13] of 6.6 µM. It also gave an IC90 [2, 14] of 20 µM, an IC50 [2, 15] of 16.1 µM and an IC90 [2, 16] of 23.9 µM. It also gave an IC50 [2, 17] of 13.8 µM and an IC90 [2, 18] of 22.8 µM.
For `Cc1ccc(Oc2ccccc2-c2csc(NC3=NCCCN3)n2)c(C)c1` [MMV1634493], the activity at 25 µM [1, 19] was 13.4%, the activity at 25 µM [1, 5] was 34.1% and the activity at 25 µM [1, 6] was 1.37%. For the same molecule, the activity at 25 µM [1, 7] was 4.64%, the activity at 100 µM [1, 20] was 5.01% and the activity at 100 µM [1, 21] was 1.69%. For the same molecule, the activity at 100 µM [1, 22] was 6.56%, the activity at 100 µM [1, 23] was 6.77% and the “Drug static or cidal” value [2] was “Static”. The IC50 ([2]; MM55, mean, read-out: IC50 mean) was > 25 µM, the IC90 ([2]; MM55, read-out: IC90 mean) was > 25 µM and the IC50 [2, 24] was > 25 µM. For the same molecule, the IC90 [2, 25] was > 25 µM, the IC50 [2, 26] was > 25 µM and the IC90 [2, 27] was > 25 µM. For the same molecule, the IC50 [2, 28] was > 25 µM and the IC90 [2, 29] was > 25 µM.
Work on `O=[N+]([O-])/C(Br)=C/c1ccc(Br)o1` [MMV1645051] yielded an activity at 25 µM [1, 19] of 1.68%, an activity at 25 µM [1, 5] of 2.2% and an activity at 25 µM [1, 6] of -0.118%. It also gave an activity at 25 µM [1, 7] of 2.96%, an activity at 100 µM [1, 20] of 7.68% and an activity at 100 µM [1, 21] of -0.809%. For the same molecule, the activity at 100 µM [1, 22] was 7.74%, the activity at 100 µM [1, 23] was 16.1% and the “Drug static or cidal” value [2] was “Static”. The IC90 ([2]; MM55, read-out: IC90 mean) was > 25 µM, the IC50 [2, 24] was > 25 µM and the IC90 [2, 25] was > 25 µM. For the same molecule, the IC50 [2, 26] was 23 µM, the IC90 [2, 27] was > 25 µM and the IC50 [2, 28] was > 25 µM. For the same molecule, the IC90 [2, 29] was > 25 µM.
In the case of “Miconazole [MMV689401, reference compound]”, the “Percentage survival at 25um, 25 uM B” value [1] is reported as 77.7759%, the “Percentage survival at 25um, 25 uM C” value [1] is reported as 51.747% and the “Percentage survival at 25um, 25 uM mean” value [1] is reported as 64.2303%. The “Percentage survival at 25um, 25 um A” value ([1]; 25 uM, replicate A, M. mycetomatis MM55) was 63.1681%, the “Percentage survival at 100um, 100 uM mean” value ([1]; 100 uM, mean of three, M. mycetomatis MM55) was 51.5997% and the “Percentage survival at 100um, 100 uM A (first replicate column)” value ([1]; 100 uM, replicate 1, M. mycetomatis MM55) was 60.4441%. The “Percentage survival at 100um, 100 uM A (second replicate column)” value ([1]; 100 uM, replicate 2, M. mycetomatis MM55) was 58.6196%, the “Percentage survival at 100um, 100 uM A (third replicate column)” value ([1]; 100 uM, replicate 3, M. mycetomatis MM55) was 35.7354% and the MIC50 ([3]; median MIC over ten M. mycetomatis isolates, read-out: MIC50) was 0.13 µM. The “MIC range” value ([3]; range of MIC over ten M. mycetomatis isolates) was <0.03 to 0.25 µM.
